Source: article PMC9977398, “Next-generation membrane-active glycopeptide antibiotics that also inhibit bacterial cell division” (Chemical Science, 2023)

Assays:
MRSA = assay: Antagonization assay with Ac2KAA or lipoteichoic acid; assay type: cell-based, S. aureus; conditions: for change in MIC in presence of lipoteichoic acid: 100 μg/mL lipoteichoic acid as competing ligand
Method: Ac2KAA can act as a competitive ligand to the target of glycopeptide antibiotics and therefore antagonize antibacterial activity. In the presence of 500 μM of Ac2KAA, the activity of VanQAmC10 (8) was reduced by 2-fold. However, the MIC of vancomycin increased from 0.6 μM to >30 μM ([…] increase in MIC) in presence of the same amount of Ac2KAA. The 2-fold reduction in the activity of VanQAmC10 (8) accounts for the loss of activity due to D-Ala–D-Ala binding. This implied that it acted through additional mechanisms that are independent of Ala-D-Ala binding. The presence of the positive charge in VanQAmC10 (8) could result in interactions with the negatively charged components of the bacterial cell wall like teichoic acid. C-terminal trimethyl ammonium modified vancomycin derivative has been reported to bind to teichoic acid.[32] […]
Antagonization of antibacterial activity of AAV-qC10 was determined by addition of 500 μM
N,N՛-diacetyl–L-Lys–D-Ala–D-Ala or 100 μg/mL of lipoteichoic acid to serial dilutions of the […]

B. subtilis = assay: Cytoplasmic membrane depolarization assay, DiSC3(5); assay type: cell-based; conditions: exponentially growing B. subtilis, 10 μM
Excerpt: The membrane disruption properties of both VanQbiph (4) and VanQAmC10 (8) were studied to correlate the extent of membrane perturbation and bactericidal activity against both exponentially growing and non-growing bacterial cells. Their ability to depolarize the membrane was monitored using the fluorescent probe DiSC3(5) (3,3′-dipropylthiadicarbocyanine iodide). DiSC3(5) is sensitive to the membrane potential and as it accumulates in the membrane, the fluorescence intensity decreases due to self-quenching. Upon dissipation of membrane potential, an increase in fluorescence is observed due to DiSC3(5) being dispersed in the solution. […]
were added to it the wells containing bacterial suspension. Fluorescence has monitored at excitation wavelength of 535 nm (slit width: 10 nm) and emission wavelength of 617 nm (slit width: 5 nm). As a measure of inner membrane permeabilization the uptake of PI was monitor by the increase in fluorescence for 30-50 min. […]
Mid log phase MRSA were harvested (3500 rpm, 5 min), washed in 5 mM glucose and 5 mM HEPES buffer (pH 7.2) in 1:1 ratio and resuspended in 5 mM HEPES buffer, 5 mM glucose and 100 mM KCl solution in 1:1:1 ratio. […] The fluorescence was monitored at excitation wavelength of 622 nm and emission wavelength of 670 nm. […] As a measure of membrane depolarization fluorescence was monitor for another 35 min. […]

Compound	change in MIC in presence of lipoteichoic acid (MRSA)	fold reduction of activity in presence of Ac2KAA (MRSA; 500 μM Ac2KAA, MRSA) [fold]	time to membrane depolarisation post-treatment (B. subtilis) [min]	fold increase in MIC in presence of Ac2KAA (MRSA; 500 μM Ac2KAA, MRSA) [fold]	MIC (MRSA; Staphylococcus aureus, 500 μM Ac2KAA, MRSA, read-out: MIC in presence of Ac2KAA) [µM]
CCCCCCCCCCNC(=O)C[N+](C)(C)CCCNC(=O)C1NC(=O)C2NC(=O)C(NC(=O)C3NC(=O)C(CC(N)=O)NC(=O)C(NC(=O)C(CC(C)C)NC)C(O)c4ccc(c(Cl)c4)Oc4cc3cc(c4OC3OC(CO)C(O)C(O)C3OC3CC(C)(N)C(O)C(C)O3)Oc3ccc(cc3Cl)C2O)c2ccc(O)c(c2)-c2c(O)cc(O)cc21 (stereo not shown) [VanQAmC10 (8)]	no change in the MIC	2	≤ 2	–	–
CN[C@H](CC(C)C)C(=O)N[C@H]1C(=O)N[C@@H](CC(N)=O)C(=O)N[C@H]2C(=O)N[C@H]3C(=O)N[C@H](C(=O)N[C@H](C(=O)O)c4cc(O)cc(O)c4-c4cc3ccc4O)[C@H](O)c3ccc(c(Cl)c3)Oc3cc2cc(c3O[C@@H]2O[C@H](CO)[C@@H](O)[C@H](O)[C@H]2O[C@H]2C[C@](C)(N)[C@H](O)[C@H](C)O2)Oc2ccc(cc2Cl)[C@H]1O [Vancomycin, reference compound]	no change in the MIC	–	–	> 40	> 30
CNC(CC(C)C)C(=O)NC1C(=O)NC(CC(N)=O)C(=O)NC2C(=O)NC3C(=O)NC(C(=O)NC(C(=O)NCCC[N+](C)(C)Cc4ccc(-c5ccccc5)cc4)c4cc(O)cc(O)c4-c4cc3ccc4O)C(O)c3ccc(c(Cl)c3)Oc3cc2cc(c3OC2OC(CO)C(O)C(O)C2OC2CC(C)(N)C(O)C(C)O2)Oc2ccc(cc2Cl)C1O (stereo not shown) [VanQbiph (4)]	–	–	≤ 2	–	–
